Molecules are shown by their SMILES. “And” between values parts separate entries of the source, which are not always exact repeats. Equal entries are not always repeated. Where two headings read alike, the source gives them in different places.

Data set [1] concerns AML. The note with it: cited from earlier work; for Response rate: temozolomide 200 mg/m^2/day x 7 days, adults ≥ 60 years.
Data set [2] can be described thus: Phase 1 dose escalation: toxicity. It is filed as in vivo, human.
Data set [3] in a line: Temozolomide plasma pharmacokinetics. Format: in vivo, human.
Data set [4] has as its system Ser139-phospho-H2AX (γH2AX). Description: H2AX phosphorylation in viable peripheral blood cells and CD34+ subset. It is filed as in vivo, human.
Data set [5] can be described thus: Veliparib plasma pharmacokinetics. Format: in vivo, human. The note with it: for half-life: human, plasma, oral.
The mark [6] stands for this setting: temozolomide 200 mg/m^2/day alone (day 3), veliparib dose 20–200 mg.
The mark [7] stands for this setting: single dose of veliparib, 6 hours, relative to pretreatment, DL5/DL6.
Setting [8] is: veliparib 200 mg, administered alone.

For the compound `Cn1nnc2c(C(N)=O)ncn2c1=O` [Temozolomide, temozolomide], the Overall response rate in data set [1] (MGMT+ cases) was 6%; in data set [1] (MGMT− AMLs), 60%. Moreover, in data set [1] (newly diagnosed AML or high-risk MDS with low MGMT expression), the “Patients achieving a response” value is on record as 53%. Besides, the figures for the Response rate in data set [1] (newly diagnosed AML) and in data set [1] (relapsed/refractory AML) were 22% and 5%, respectively. Besides, the “Temozolomide dose at the MTD / RP2D” value in data set [2] (for 7 days, with veliparib 150 mg twice a day) is listed as 200 mg/m^2/day. Besides, the Cmax (commonly the peak of the concentration-time curve) in data set [3] (human, plasma, oral, Cmax, temozolomide 200 mg/m^2/day in combination with veliparib 20–200 mg (day 8)) turned out to be 12000 ± 3800 ng/mL. Moreover, the half-life – broadly, the time in which the quantity being followed falls by half – in data set [3] (human, plasma, oral, t1/2, temozolomide 200 mg/m^2/day in combination with veliparib 20–200 mg (day 8)) was 1.9 ± 0.4 h. The Tmax (as a rule, the time at which the peak concentration occurs) in data set [3] (human, plasma, oral, tmax (median), temozolomide 200 mg/m^2/day in combination with veliparib 20–200 mg (day 8)) came to 1 h. Moreover, the “Cl/F, Obs.” value in data set [3] (setting [6]) was 9.2 ± 3.2 L/h. Moreover, the “V/F, Obs.” value in data set [3] (setting [6]) is 25 ± 9.1 L. Also, in data set [3] (temozolomide 200 mg/m^2/day in combination with veliparib 20–200 mg (day 8)), the V/F is listed as 28±10 (25) L.
For the compound `C[C@]1(c2nc3c(C(N)=O)cccc3[nH]2)CCCN1` [Veliparib, veliparib], in data set [2] (given with temozolomide 200 mg/m^2 daily for 7 days, veliparib for 9 days), the “Maximum tolerated dose (MTD) / RP2D of veliparib” value is 150 mg twice daily. Besides, the “Increase in phospho-H2AX positive CD34+ cells” value in data set [4] (1 patient with HI, day 1) was 2.3 fold; in data set [4] (two patients who achieved CR, day 1, 6 hours post- versus pre-treatment) it was 2.3 fold and 1.3 fold. Further, the “Patients with increased H2AX phosphorylation in CD34+ subset” value in data set [4] (setting [7]) is recorded as 8 of 12. Besides, the “Patients with increased H2AX phosphorylation in PB cells” value in data set [4] (setting [7]) was 4 of 12. In addition, the “Increase in H2AX phosphorylation in PB cells” value in data set [4] (two patients who achieved CR) is given as at least 2 fold. In addition, the half-life in data set [5] (t1/2, veliparib 120 mg in combination with temozolomide 200 mg/m^2/day (day 8)) is 9.1 ± 8 h; in data set [5] (t1/2, veliparib 150 mg in combination with temozolomide 200 mg/m^2/day (day 8)), 5.3 ± 1.7 h; in data set [5] (t1/2, veliparib 200 mg in combination with temozolomide 200 mg/m^2/day (day 8)), 3.6 ± 2.8 h. In addition, the V/F in data set [5] (veliparib 20 mg alone (day 1), temozolomide dose 150 or 200 mg/m^2/day) is 285 ± 175 L; in data set [5] (veliparib 20 mg in combination with temozolomide 150 or 200 mg/m^2/day (day 8)), 180±49 (3) L; in data set [5] (veliparib 120 mg alone (day 1), temozolomide dose 200 mg/m^2/day) it was 181±50 (10) L; in data set [5] (veliparib 120 mg in combination with temozolomide 200 mg/m^2/day (day 8)), 191±165 (8) L; in data set [5] (veliparib 150 mg alone (day 1), temozolomide dose 200 mg/m^2/day), 190±72 (16) L; in data set [5] (veliparib 150 mg in combination with temozolomide 200 mg/m^2/day (day 8)) it was 109±45 (10) L. Moreover, the V/F in data set [5] (veliparib 200 mg alone (day 1), temozolomide dose 200 mg/m^2/day) is 84±26 (4) L; in data set [5] (veliparib 200 mg in combination with temozolomide 200 mg/m^2/day (day 8)), 77±59 (3) L. In data set [5] (setting [8]), the “Increase in AUC at the highest administered dose” value stood at 1.4 fold. For the same compound, the “Increase in Cmax at the highest administered dose” value in data set [5] (setting [8]) is 2.5 fold.

The values are drawn from article PMC5290001 (Clinical cancer research : an official journal of the …, 2016).
